“Also recorded” adds a separate entry of the source.
Columns and labels:
[1] = Rheometry: elastic modulus (G′) of sputum from cystic fibrosis (CF) patients; design: species or system human; details: for mucolysis: onset and endpoint (12-minutes), change in G′: single sputum sample from a CF patient (FIG. 6); for mucolytic effect on elastic modulus G′ over 12-minute test period: CF sputum n=5 donors (FIG. 7A); for mucolytic effect: change in elastic modulus G′ (%-change from baseline): twelve-minute test period (FIG. 5A); for effect on G′ of CF sputum: sputum pooled from three CF patients (FIG. 3)
Experimental: (§1) A rheometer was employed to determine the effect of the compounds disclosed herein on the elastic modulus (G′) of sputum sample from human subjects. The terms “elastic modulus,” “G′,” and the like refer to the elastic modulus as known in the art. Inhalation of 3% saline facilitates mucus expectoration (“induced sputum”) in human subjects, including in healthy subjects without lung disease. A typical sputum induction yields 3-5 mL of sputum, and induced sputum samples can be pooled from several donors in order to provide as much as 20 mL with for any given set of experiments. The rheometer can use 1 mL per assay. Rheological measurements can be made, e.g., with a AR2000 cone-and-plate rheometer (TA Instruments), as known in the art.
(§2) Patients with cystic fibrosis (CF) are able to spontaneously expectorate sputum samples. […] We typically add the test compound to induced sputum at a 10% v/v, and we calculate effect of the test compound by measuring G′ every 2 minutes for periods up to 20 minutes. Because oxidation can cause baseline drift, we keep the experiment under nitrogen to improve signal to noise ratios. We custom modified a cone and plate rheometer to permit this kind of control in our rheometry experiments. Another protocol element that we use to optimize signal to noise is the addition of protease inhibitors to CF sputum to inhibit protease digestion of mucin. […]
A series of time courses of the change in baseline G′ (%-change from baseline) of sputum samples at 10 mM concentration of MDG and Cmpds 1-5 is depicted in FIG. 6. Each datum in the figure was obtained from a single sputum sample from a patient with cystic fibrosis. […] Moreover, the length of the chain leading to the thiol is important; compare Cmpd 2 (C5 alkylene) vs. Cmpd 3 (C2 alkylene).
A time course of the change in baseline G′ (%-change from baseline) at 10 mM concentration of thiosaccharide is depicted in FIG. 7A. The drugs compared include an unmodified sugar (MDG), Glutathione (GSH, a natural endogenous reducing agent), N-acetyl cysteine (NAC), Cmpd 1 and Cmpd 2.

[2] = Rheometry: elastic modulus (G′) of pooled induced sputum from healthy subjects; design: species or system human; details: for effect on elastic modulus G′ (in words): 1 mM (FIG. 1)
Experimental: A rheometer was employed to determine the effect of the compounds disclosed herein on the elastic modulus (G′) of sputum sample from human subjects. The terms “elastic modulus,” “G′,” and the like refer to the elastic modulus as known in the art. Inhalation of 3% saline facilitates mucus expectoration (“induced sputum”) in human subjects, including in healthy subjects without lung disease. A typical sputum induction yields 3-5 mL of sputum, and induced sputum samples can be pooled from several donors in order to provide as much as 20 mL with for any given set of experiments. The rheometer can use 1 mL per assay. Rheological measurements can be made, e.g., with a AR2000 cone-and-plate rheometer (TA Instruments), as known in the art. Patients with cystic fibrosis (CF) are able to spontaneously expectorate sputum samples. […] We typically add the test compound to induced sputum at a 10% v/v, and we calculate effect of the test compound by measuring G′ every 2 minutes for periods up to 20 minutes. Because oxidation can cause baseline drift, we keep the experiment under nitrogen to improve signal to noise ratios. We custom modified a cone and plate rheometer to permit this kind of control in our rheometry experiments. Another protocol element that we use to optimize signal to noise is the addition of protease inhibitors to CF sputum to inhibit protease digestion of mucin. As depicted in FIG. 1, the elastic modulus (G′) of pooled induced sputum from five healthy subjects was determined as a function of time in the presence of 1 mM PBS (phosphate buffered saline), NAC (N-acetylcysteine), Cmpd 1, Cmpd 29, Glc-NAc, and Gal-NAc.

[3] = Oxidation-reduction potential (ORP) measurement; format: physicochemical; details: solutions (1 mM); for Reducing capacity (ORP): ORP probe; for reducing properties (in words): compared to parent sugar (PS) control
Experimental: An INLAB® Redox Micro ORP probe (Mettler Toledo) was employed, which utilizes a small platinum ring indicator electrode and a 3M KCL reference electrolyte. ORP values were determined for thiosaccharides, NAC and glutathione.

[4] = cited from earlier work
[5] = Rheometry: disulfide dimer study, elastic modulus (G′) of sputum (source not stated); design: species or system human; details: 10 mM (FIG. 2)
Experimental: as §1, §2

[6] = 61 mM, CF sputum n=5 donors, 12 minutes (FIG. 5C)

Row | SMILES | mucolysis: onset and endpoint (12-minutes), change in G′ ([1]; 10 mM) | mucolytic effect on elastic modulus G′ over 12-minute test period ([1]; 10 mM) | mucolytic effect: change in elastic modulus G′ (%-change from baseline) ([1]; 61 mM, CF sputum n=5 donors) | Reducing capacity (ORP) [3] [mV] | reducing properties (in words) [3] | other results
1 | OCC1O[C@@H](OCCCCCS)C(O)[C@@H](O)[C@@H]1O (stereo partly drawn) [Cmpd 5] | a galactose moiety (i.e., Cmpd 2) affords a better mucolytic than mannose (Cmpd 5) or glucose (Cmpd 4) | – | – | – | – | –
2 | CC(=O)N[C@@H](CS)C(=O)O [NAC, N-Acetylcysteine, reference compound] | – | no better than control solutions | decrease the elastic modulus (G′) | 121 | did not have strong reducing properties | effect on elastic modulus G′ (in words) [2]: not effective in decreasing G′; mucolytic effect at 12 minutes [1, 6]: similar; pKa [4]: 2.2
3 | CO[C@H]1O[C@H](CO)[C@H](O)[C@H](O)[C@H]1O [MDG, methyl α-D-galactopyranoside, reference compound] | – | ineffective as mucolytics | no mucolytic effect | 176 | – | effect on G′ of CF sputum ([1]; 10 mM): ineffective in decreasing G′ of CF sputum
4 | CO[C@H]1OC(CS)[C@H](O)C(O)C1O (stereo partly drawn) [Cmpd 1, methyl 6-deoxy-6-thio-α-D-galactopyranoside] | – | – | decrease the elastic modulus (G′) | 99 | relatively strong reducing capabilities | decrease in elastic modulus G′ ([2]; 1 mM, during the time course of the experiment (FIG. 1)): ~30%; effect on G′ of CF sputum ([1]; 10 mM): larger than the effect in healthy induced sputum; onset of action ([1]; 61 mM, CF sputum): significantly faster onset of action relative to either parent sugar MDG or NAC; average mucolytic effect at two minutes ([1]; 61 mM, CF sputum n=5 donors, 2 minutes (FIG. 5B)): significantly larger than observed for NAC; also recorded: much larger mucolytic effects than NAC; mucolytic effect at 12 minutes [1, 6]: similar; decrease in elastic modulus G′ of individual sputum samples from CF patients ([1]; individual samples from three CF patients (FIGS. 4A-4D)): ca. 50%; efficacy in reducing elastic modulus G′ (comparison) [5]: more effective in reducing elastic modulus G′ than either the disulfide dimer of Cmpd 1 or Cmpd 6
5 | N[C@@H](CCC(=O)N[C@@H](CS)C(=O)NCC(=O)O)C(=O)O [GSH, Glutathione] | – | ineffective as mucolytics | – | 140 | did not have strong reducing properties | –
6 | CO[C@H]1OC(CO)[C@H](S)[C@H](O)C1O (stereo partly drawn) [Cmpd 29] | – | – | – | – | – | effect on elastic modulus G′ (in words) [2]: approximately half of the decrease in G′ observed with Cmpd 1
7 | OCC1O[C@@H](OCCCCCS)C(O)[C@@H](O)[C@H]1O (stereo partly drawn) [Cmpd 2, 5-Thiolpentyl β-D-galactopyranoside] | affords a better mucolytic than mannose (Cmpd 5) or glucose (Cmpd 4) | largest effect | – | −15 | very strong reducing activity | mucolytic effect at two minutes ([1]; 10 mM, CF sputum n=5 donors, 2 minutes (FIG. 7B)): much larger mucolytic effects than NAC; mucolytic effect at 12 minutes ([1]; 10 mM, CF sputum n=5 donors, 12 minutes (FIG. 7C)): significantly greater than observed for NAC; also recorded: significantly greater than for Cmpd 1; also recorded: much larger mucolytic effects than NAC; also recorded: significantly greater than that of Cmpd 1
8 | OCC1O[C@H](OCCCCCS)C(O)[C@@H](O)[C@@H]1O (stereo partly drawn) [Cmpd 4] | a galactose moiety (i.e., Cmpd 2) affords a better mucolytic than mannose (Cmpd 5) or glucose (Cmpd 4) | – | – | – | – | –

From patent publication US11021506B2, “Thiosaccharide mucolytic agents” (The Regents of the University of California, priority 2013, dated 2021)
